Assay results: PubChem BioAssay AID2060616 (Molecular Pharmacology Branch, DTP, NCI, 2025)
“And” between values parts separate entries of the source, which are not always exact repeats. Identical values can stand only once. Each block holds one compound with its values, some of them ahead of it.

System: 377384-186-R-J1-PDC complex spheroid viability
Assay: Anticancer human tumor 377384-186-R-J1-PDC patient-derived pancreatic carcinoma cell line growth inhibition [CLK]
Details: for viability, T/C: stronger effect = lower value
In short: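 Patient-derived tumor cells grown as complex spheroids with HUVEC endothelial cells and mesenchymal stem cells, treated with drug combinations. Concentrations descend in half-log steps from near clinical Cmax, or from 10 microM if Cmax unknown.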

[1] = curve of first compound, second compound 0.0316 µM
[2] = curve of first compound, second compound 0.1 µM
[3] = curve of first compound, second compound 0.316 µM
[4] = curve of first compound, second compound 1 µM
[5] = curve of first compound, second compound 3.16 µM
[6] = curve of first compound, second compound 10 µM
[7] = second compound 0.0316 µM, first compound 0.0316 µM
[8] = second compound 0.0316 µM, first compound 0.1 µM
[9] = second compound 0.0316 µM, first compound 0.316 µM
[10] = second compound 0.0316 µM, first compound 1 µM
[11] = second compound 0.0316 µM, first compound 3.16 µM
[12] = second compound 0.0316 µM, first compound 10 µM
[13] = second compound 0.1 µM, first compound 0.0316 µM
[14] = second compound 0.1 µM, first compound 0.1 µM
[15] = second compound 0.1 µM, first compound 0.316 µM
[16] = second compound 0.1 µM, first compound 1 µM
[17] = second compound 0.1 µM, first compound 3.16 µM
[18] = second compound 0.1 µM, first compound 10 µM
[19] = second compound 0.316 µM, first compound 0.0316 µM
[20] = second compound 0.316 µM, first compound 0.1 µM
[21] = second compound 0.316 µM, first compound 0.316 µM
[22] = second compound 0.316 µM, first compound 1 µM
[23] = second compound 0.316 µM, first compound 3.16 µM
[24] = second compound 0.316 µM, first compound 10 µM
[25] = second compound 1 µM, first compound 0.0316 µM
[26] = second compound 1 µM, first compound 0.1 µM
[27] = second compound 1 µM, first compound 0.316 µM
[28] = second compound 1 µM, first compound 1 µM
[29] = second compound 1 µM, first compound 3.16 µM
[30] = second compound 1 µM, first compound 10 µM
[31] = second compound 3.16 µM, first compound 0.0316 µM
[32] = second compound 3.16 µM, first compound 0.1 µM
[33] = second compound 3.16 µM, first compound 0.316 µM
[34] = second compound 3.16 µM, first compound 1 µM
[35] = second compound 3.16 µM, first compound 3.16 µM
[36] = second compound 3.16 µM, first compound 10 µM
[37] = second compound 10 µM, first compound 0.0316 µM
[38] = second compound 10 µM, first compound 0.1 µM
[39] = second compound 10 µM, first compound 0.316 µM
[40] = second compound 10 µM, first compound 1 µM
[41] = second compound 10 µM, first compound 3.16 µM
[42] = second compound 10 µM, first compound 10 µM
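Also: spheroids exposed to agents for 7 days before reading.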
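For viability, T/C in this document: luminescence signal used as a stand-in for viable cells.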

- IC50 [1]: 1640 nM
- IC50 [2]: < 31.6 nM
- IC50 [3]: < 31.6 nM
- IC50 [4]: < 31.6 nM
- IC50 [5]: < 31.6 nM
- IC50 [6]: < 31.6 nM
SMILES: COc1ccc([C@@H](O)c2cc(-c3ncnc4cc(N5CCOCC5)ccc34)c(F)cc2Cl)nn1 + CNC(=O)c1ccc(Nc2nc(OC3CCCC3)c3c(-c4ccc5nc(C)oc5c4)c[nH]c3n2)c(OC)c1
- viability, T/C [7]: 93.6%
- viability, T/C [8]: 99.5%
- viability, T/C [9]: 92%
- viability, T/C [10]: 54.9%
- viability, T/C [11]: 49.6%
- viability, T/C [12]: 29.4%
- viability, T/C [13]: 36.8%
- viability, T/C [14]: 33.5%
- viability, T/C [15]: 40.5%
- viability, T/C [16]: 35%
- viability, T/C [17]: 26.5%
- viability, T/C [18]: 19.5%
- viability, T/C [19]: 16.1%
- viability, T/C [20]: 14.4%
- viability, T/C [21]: 17.4%
- viability, T/C [22]: 16.6%
- viability, T/C [23]: 16.1%
- viability, T/C [24]: 13.6%
- viability, T/C [25]: 15.9%
- viability, T/C [26]: 18.2%
- viability, T/C [27]: 18.3%
- viability, T/C [28]: 15.9%
- viability, T/C [29]: 15.3%
- viability, T/C [30]: 15.5%
- viability, T/C [31]: 14.7%
- viability, T/C [32]: 17.8%
- viability, T/C [33]: 18.1%
- viability, T/C [34]: 16.2%
- viability, T/C [35]: 16.6%
- viability, T/C [36]: 15.5%
- viability, T/C [37]: 15.7%
- viability, T/C [38]: 13.2%
- viability, T/C [39]: 17.6%
- viability, T/C [40]: 15.7%
- viability, T/C [41]: 17.3%
- viability, T/C [42]: 15.4%

- IC50 [1]: 5940 nM
- IC50 [2]: 4470 nM
- IC50 [3]: < 31.6 nM
- IC50 [4]: < 31.6 nM
- IC50 [5]: < 31.6 nM
- IC50 [6]: < 31.6 nM
SMILES: COC1C=CCC(C)C(C)S(=O)(=O)NC(=O)c2ccc3c(c2)N(CC2CCC21)CC1(CCCc2cc(Cl)ccc21)CO3 (stereo unspecified) + CNC(=O)c1ccc(Nc2nc(OC3CCCC3)c3c(-c4ccc5nc(C)oc5c4)c[nH]c3n2)c(OC)c1
- viability, T/C [7]: 100%
- viability, T/C [8]: 99.6%
- viability, T/C [9]: 97.8%
- viability, T/C [10]: 92.9%
- viability, T/C [11]: 84.2%
- viability, T/C [12]: 22.4%
- viability, T/C [13]: 57.9%
- viability, T/C [14]: 61.9%
- viability, T/C [15]: 56%
- viability, T/C [16]: 68.4%
- viability, T/C [17]: 60%
- viability, T/C [18]: 26.2%
- viability, T/C [19]: 19.9%
- viability, T/C [20]: 17.2%
- viability, T/C [21]: 18.3%
- viability, T/C [22]: 16.8%
- viability, T/C [23]: 23%
- viability, T/C [24]: 19.2%
- viability, T/C [25]: 19%
- viability, T/C [26]: 17.6%
- viability, T/C [27]: 14.9%
- viability, T/C [28]: 12.4%
- viability, T/C [29]: 17.8%
- viability, T/C [30]: 21.9%
- viability, T/C [31]: 18.9%
- viability, T/C [32]: 18.9%
- viability, T/C [33]: 13.4%
- viability, T/C [34]: 13.9%
- viability, T/C [35]: 14.6%
- viability, T/C [36]: 20.8%
- viability, T/C [37]: 18.5%
- viability, T/C [38]: 16.6%
- viability, T/C [39]: 15.1%
- viability, T/C [40]: 12.4%
- viability, T/C [41]: 12.3%
- viability, T/C [42]: 18%

- IC50 (curve of compound): 76 nM and 57.4 nM
SMILES: NC(=O)C(=Cn1cnc(-c2cc(C(F)(F)F)cc(C(F)(F)F)c2)n1)c1cncnc1
- viability, T/C (compound 0.00949 µM): 78.2% and 92.5%
- viability, T/C (compound 0.03 µM): 70.7% and 66.7%
- viability, T/C (compound 0.0949 µM): 41.7% and 36.3%
- viability, T/C (compound 0.3 µM): 27% and 18.9%
- viability, T/C (compound 0.949 µM): 7.58% and 5.02%
- viability, T/C (compound 3 µM): 3.05% and 2.18%
